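Where inhibition never reached the appropriate level, the endpoint shown equals the highest concentration tested. Otherwise, values were interpolated linearly from a five-concentration, 48-hour dose response in 96-well plates. At the GI50, growth is halved.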 Calls of active or inactive are those of the source. Cut-off read from the data, not from the text of the source: active = GI50 up to about 1.1 µM and inactive = higher.
What was measured:
Assay in all cases: DTP human tumour cell line panel, 48 h
[1] = system: MDA-MB-435
[2] = system: A498
[3] = system: MDA-MB-231
[4] = system: UO-31
[5] = system: CAKI-1
[6] = system: ACHN
[7] = system: KM12
[8] = system: TK-10
[9] = system: SF-539
[10] = system: PC-3
[11] = system: HL-60
[12] = system: EKVX
[13] = system: RPMI-8226
[14] = system: M14
[15] = system: BT-549
[16] = system: HOP-62
[17] = system: HCT-116
[18] = system: SK-MEL-2
[19] = system: NCI-H460
[20] = system: SW-620

Structure (SMILES) | GI50 [1] | GI50 [2] | GI50 [3] | GI50 [4] | GI50 [5] | GI50 [6] | GI50 [7] | GI50 [8] | GI50 [9] | GI50 [10] | GI50 [11] | GI50 [12] | GI50 [13] | GI50 [14] | GI50 [15] | GI50 [16] | GI50 [17] | GI50 [18] | GI50 [19] | GI50 [20]
N#CC(C#N)=C1CCCCc2ccc([N+](=O)[O-])cc21 | > 100 µM (inactive) | 78.3 µM (inactive) | > 100 µM (inactive) | 92.9 µM (inactive) | 95.7 µM (inactive) | 93.5 µM (inactive) | > 100 µM (inactive) | > 100 µM (inactive) | > 100 µM (inactive) | 55.3 µM (inactive) | 29 µM (inactive) | 46.6 µM (inactive) | 31.2 µM (inactive) | > 100 µM (inactive) | > 100 µM (inactive) | > 100 µM (inactive) | 24.3 µM (inactive) | > 100 µM (inactive) | > 100 µM (inactive) | 41.9 µM (inactive)
Oc1ccc2c(c1)c1c(n2CCN2CCOCC2)-c2ccccc2CC1 | > 10 µM (inactive) | 20.2 µM (inactive) | 29.9 µM (inactive) | 23.6 µM (inactive) | 33.7 µM (inactive) | 28.2 µM (inactive) | 17.8 µM (inactive) | 29.4 µM (inactive) | 21.3 µM (inactive) | 29.2 µM (inactive) | 42.3 µM (inactive) | 35.5 µM (inactive) | 29.8 µM (inactive) | 26.3 µM (inactive) | 33.6 µM (inactive) | 24.7 µM (inactive) | 37.2 µM (inactive) | 23.1 µM (inactive) | 5.83 µM (inactive) | 30.1 µM (inactive)
Nc1ccccc1-n1c2c(c3ccccc3c1=O)C(=O)c1ccccc1-2 | 57.9 µM (inactive) | 54.5 µM (inactive) | 23.9 µM (inactive) | 11.1 µM (inactive) | 16.7 µM (inactive) | 5.53 µM (inactive) | 71.6 µM (inactive) | > 10 µM (inactive) | 3.13 µM (inactive) | 16.1 µM (inactive) | 0.046 µM (active) | 27.6 µM (inactive) | 60.1 µM (inactive) | 61.7 µM (inactive) | 0.857 µM (active) | 7.14 µM (inactive) | 20.8 µM (inactive) | 19.9 µM (inactive) | 24.5 µM (inactive) | 14.5 µM (inactive)
C=CCN(c1cc(O)c2c(c(C)cn2S(=O)(=O)c2ccccc2)c1[N+](=O)[O-])S(C)(=O)=O | 29.2 µM (inactive) | 74.1 µM (inactive) | > 100 µM (inactive) | > 100 µM (inactive) | > 100 µM (inactive) | 81.1 µM (inactive) | > 100 µM (inactive) | > 100 µM (inactive) | > 100 µM (inactive) | > 100 µM (inactive) | > 100 µM (inactive) | 76.9 µM (inactive) | 61.2 µM (inactive) | > 100 µM (inactive) | > 100 µM (inactive) | > 100 µM (inactive) | 59.2 µM (inactive) | > 100 µM (inactive) | 63.8 µM (inactive) | > 100 µM (inactive)
CCCCC(/C=C\COC1CCCCO1)=C/C(=O)OCC (stereo not given) | > 100 µM (inactive) | > 100 µM (inactive) | > 100 µM (inactive) | > 100 µM (inactive) | > 100 µM (inactive) | > 100 µM (inactive) | 46.6 µM (inactive) | > 100 µM (inactive) | 14.3 µM (inactive) | 44.9 µM (inactive) | 29.2 µM (inactive) | 37 µM (inactive) | 25.9 µM (inactive) | 91.6 µM (inactive) | > 100 µM (inactive) | > 100 µM (inactive) | 28.6 µM (inactive) | > 100 µM (inactive) | 98.6 µM (inactive) | 70.6 µM (inactive)
NC(=O)c1cccc([C@@H]2O[C@H](CO)[C@@H](O)[C@H]2O)c1 | > 49.2 µM (inactive) | > 100 µM (inactive) | 77.1 µM (inactive) | 5.35 µM (inactive) | 18.4 µM (inactive) | 18.2 µM (inactive) | 4.09 µM (inactive) | 29.6 µM (inactive) | 2.24 µM (inactive) | 30.9 µM (inactive) | 3.21 µM (inactive) | 68.7 µM (inactive) | 4.42 µM (inactive) | 3.2 µM (inactive) | 14.5 µM (inactive) | 8.3 µM (inactive) | 18.5 µM (inactive) | > 97.1 µM (inactive) | 48.5 µM (inactive) | 7.78 µM (inactive)

Reference: ChEMBL document CHEMBL1201862, “PubChem BioAssay data set” (2004)
